Consider six compounds from patent publication US20120220461A1, “CRYSTAL FORMS OF SULFONYLUREA COMPOUND AND METHOD FOR PRODUCING THE SAME” (NISSAN CHEMICAL INDUSTRIES, LTD., priority 2009, published 2012).

This series can be described thus: Change of crystal form by heating, friction or suspension in a solvent. Type of series: physicochemical. An excerpt:
In the present invention, for the discrimination of the crystal form, a powder X-ray diffraction measurement, a differential thermal analysis, ^13C CP/TOSS NMR, a Raman spectroscopy, and the like are effective, however, the method for the discrimination is not limited to these measurement methods.
• Apparatus: MXLabo (manufactured by Mac Science Corporation (present: Bruker AXS, Inc.)) • Ray source: Cu • Wavelength: 1.54056A • Goniometer: vertical-type goniometer • Tube voltage: 40.0 kV • Tube current: 30 mA • Measuring method: continuous method • Data range: 3.0400 to 40.0000 deg • Scanning axis: 2θ/θ • Sampling interval: 0.0400 deg • Scanning rate: 3.600 deg/min. • Emission slit: 1.00 deg • Scattering slit: 1.00 deg • Receiving slit: 0.15 mm • RSM: 0.80 mm
• Apparatus: TG 8120 (manufactured by Rigaku Corporation) • Temperature elevation: 20° C. to 300° C. at an elevation rate of 5° C./min • Atmosphere: Air • Reference: Al2O3 • Vessel: Al vessel • Sampling: 1 sec

SMILES strings stand for the structures.

As for `COc1cc(OC)nc(NC(=O)NS(=O)(=O)c2c(C3=NOCC(C)O3)c(Cl)nn2C)n1` (stereo not shown) [crystal form A, 3-chloro-N-(4,6-dimethoxypyrimidine-2-ylcarbamoyl)-1-methyl-4-(5-methyl-5,6-dihydro-1,4,2-dioxazine-3-yl)-1H-pyrazole-5-sulfonamide], the “change of crystal form by heating or friction” value (“change … by heating or friction” for short) is “not observed”.
With `COc1cc(OC)nc(NC(=O)NS(=O)(=O)c2c(C3=NOCC(C)O3)c(Cl)nn2C)n1` (stereo not shown) [crystal form B, 3-chloro-N-(4,6-dimethoxypyrimidine-2-ylcarbamoyl)-1-methyl-4-(5-methyl-5,6-dihydro-1,4,2-dioxazine-3-yl)-1H-pyrazole-5-sulfonamide], the “change of crystal form by heating” value is “not observed”. The “change of crystal form on suspending in a solvent and stirring” value (suspended in a solvent, stirred) is given as “transits to be converted into the crystal form A”.
On to `COc1cc(OC)nc(NC(=O)NS(=O)(=O)c2c(C3=NOCC(C)O3)c(Cl)nn2C)n1` (stereo not shown) [crystal form C, 3-chloro-N-(4,6-dimethoxypyrimidine-2-ylcarbamoyl)-1-methyl-4-(5-methyl-5,6-dihydro-1,4,2-dioxazine-3-yl)-1H-pyrazole-5-sulfonamide], for which the “change … by heating or friction” value is listed as “transits to the crystal form A or B”.
As to `COc1cc(OC)nc(NC(=O)NS(=O)(=O)c2c(C3=NOCC(C)O3)c(Cl)nn2C)n1` (stereo not shown) [crystal form D, 3-chloro-N-(4,6-dimethoxypyrimidine-2-ylcarbamoyl)-1-methyl-4-(5-methyl-5,6-dihydro-1,4,2-dioxazine-3-yl)-1H-pyrazole-5-sulfonamide], the “change of crystal form by heating” value is on record as “transits to the crystal form A”.
As to `COc1cc(OC)nc(NC(=O)NS(=O)(=O)c2c(C3=NOCC(C)O3)c(Cl)nn2C)n1` (stereo not shown) [crystal form E, 3-chloro-N-(4,6-dimethoxypyrimidine-2-ylearbamoyl)-1-methyl-4-(5-methyl-5,6-dihydro-1,4,2-dioxazine-3-yl)-1H-pyrazole-5-sulfonamide], the “change … by heating or friction” value is given as “transits to the crystal form A”.
Consider `COc1cc(OC)nc(NC(=O)NS(=O)(=O)c2c(C3=NOCC(C)O3)c(Cl)nn2C)n1` (stereo not shown) [crystal form F, 3-chloro-N-(4,6-dimethoxypyrimidine-2-ylcarbamoyl)-1-methyl-4-(5-methyl-5,6-dihydro-1,4,2-dioxazine-3-yl)-1H-pyrazole-5-sulfonamide], for which the “change … by heating or friction” value was “transits to the crystal form A”.
